In article PMC5218480 (PLoS ONE, 2017):

System: MV-4-11 cells
Experiment: Gene expression microarray analysis (Affymetrix PrimeView) and GSEA
Assay type: cell-based, human
Set-up: RFU PODN (11730768_x_at) / Fold change /veh PODN (11730768_x_at) / RFU LINC00158 (11744669_a_at) / Fold change /veh LINC00158 (11744669_a_at) / RFU DUSP10 (11751237_a_at) / Fold change /veh DUSP10 (11751237_a_at) / RFU ID3 (11757404_x_at) / Fold change /veh ID3 (11757404_x_at) / RFU PLEKHG5 (11737974_s_at) / Fold change /veh PLEKHG5 (11737974_s_at) / RFU LRRC4B (11730491_at) / Fold change /veh LRRC4B (11730491_at) / RFU GIMAP4 (11747438_a_at) / Fold change /veh GIMAP4 (11747438_a_at) / RFU KRT8 (11758183_x_at) / Fold change /veh KRT8 (11758183_x_at) / RFU CNN1 (11734310_a_at) / Fold change /veh CNN1 (11734310_a_at) / RFU VPS37D (11726825_at) / Fold change /veh VPS37D (11726825_at) / RFU C10orf10 (11716522_x_at) / Fold change /veh C10orf10 (11716522_x_at) / RFU KIR2DL2 /// KIR2DL4 /// KIR2DL5A /// KIR2DL5B /// KIR2DS1 /// KIR2DS2 /// KIR2DS3 /// KIR2DS4 /// KIR3DL3 /// KIR3DL3 /// KIR3DS1 (11738374_at) / Fold change /veh KIR2DL2 /// KIR2DL4 /// KIR2DL5A /// KIR2DL5B /// KIR2DS1 /// KIR2DS2 /// KIR2DS3 /// KIR2DS4 /// KIR3DL3 /// KIR3DL3 /// KIR3DS1 (11738374_at) / RFU C1QL1 (11718748_at) / Fold change /veh C1QL1 (11718748_at) / RFU TMPRSS4 (11747572_a_at) / Fold change /veh TMPRSS4 (11747572_a_at) / RFU HAMP (11756126_x_at) / Fold change /veh HAMP (11756126_x_at) / RFU RNFT2 (11725882_a_at) / Fold change /veh RNFT2 (11725882_a_at) / RFU NR4A2 (11747474_a_at) / Fold change /veh NR4A2 (11747474_a_at) / RFU ABCC12 (11746883_a_at) / Fold change /veh ABCC12 (11746883_a_at) / RFU TMEM136 (11760407_x_at) / Fold change /veh TMEM136 (11760407_x_at) / RFU CLDN22 /// WWC2 (11732394_at) / Fold change /veh CLDN22 /// WWC2 (11732394_at) / RFU HLA-DPB1 (11760878_x_at) / Fold change /veh HLA-DPB1 (11760878_x_at) / RFU SPINT1 (11716480_a_at) / Fold change /veh SPINT1 (11716480_a_at) / RFU GAP43 (11754022_s_at) / Fold change /veh GAP43 (11754022_s_at) / RFU A4GNT (11735810_at) / Fold change /veh A4GNT (11735810_at) / RFU PRB3 (11715151_x_at) / Fold change /veh PRB3 (11715151_x_at) / RFU TUBB4B (11761932_at) / Fold change /veh TUBB4B (11761932_at) / RFU CAPN14 (11732068_a_at) / Fold change /veh CAPN14 (11732068_a_at) / RFU TMCC2 (11721928_a_at) / Fold change /veh TMCC2 (11721928_a_at) / RFU IRGQ (11745062_a_at) / Fold change /veh IRGQ (11745062_a_at) / RFU FAM174B (11720279_a_at) / Fold change /veh FAM174B (11720279_a_at) / RFU TMPRSS4 (11748680_a_at) / Fold change /veh TMPRSS4 (11748680_a_at) / RFU FAM212B (11763350_a_at) / Fold change /veh FAM212B (11763350_a_at) / RFU PLEKHG5 (11743358_a_at) / Fold change /veh PLEKHG5 (11743358_a_at) / RFU ZSCAN30 (11745921_a_at) / Fold change /veh ZSCAN30 (11745921_a_at) / RFU CMKLR1 (11741424_a_at) / Fold change /veh CMKLR1 (11741424_a_at) / RFU LOC101060620 /// MAPK8IP1 (11723275_at) / Fold change /veh LOC101060620 /// MAPK8IP1 (11723275_at) / RFU SPTSSB (11747773_x_at) / Fold change /veh SPTSSB (11747773_x_at) / RFU PRSS12 (11739890_at) / Fold change /veh PRSS12 (11739890_at) / RFU BIN1 (11741810_x_at) / Fold change /veh BIN1 (11741810_x_at) / RFU WNT11 (11732464_a_at) / Fold change /veh WNT11 (11732464_a_at) / RFU C10orf10 (11716521_a_at) / Fold change /veh C10orf10 (11716521_a_at) / RFU C5orf56 (11738089_at) / Fold change /veh C5orf56 (11738089_at) / RFU CYB561 (11721691_x_at) / Fold change /veh CYB561 (11721691_x_at) / RFU ANKRD19P (11752326_a_at) / Fold change /veh ANKRD19P (11752326_a_at) / RFU OR2T12 /// OR2T33 /// OR2T8 (11738714_s_at) / Fold change /veh OR2T12 /// OR2T33 /// OR2T8 (11738714_s_at) / RFU VCAN (11748164_a_at) / Fold change /veh VCAN (11748164_a_at) / RFU JSRP1 (11732532_at) / Fold change /veh JSRP1 (11732532_at) / RFU KRTAP10-11 (11738290_x_at) / Fold change /veh KRTAP10-11 (11738290_x_at) / RFU MYO3A (11730013_a_at) / Fold change /veh MYO3A (11730013_a_at) / RFU EBF3 (11725865_a_at) / Fold change /veh EBF3 (11725865_a_at) / RFU CAMK2N1 (11719241_x_at) / Fold change /veh CAMK2N1 (11719241_x_at) / RFU C5orf56 (11738088_a_at) / Fold change /veh C5orf56 (11738088_a_at) / RFU OLFML3 (11715873_a_at) / Fold change /veh OLFML3 (11715873_a_at) / RFU LOC100653217 /// NTM (11731650_a_at) / Fold change /veh LOC100653217 /// NTM (11731650_a_at) / RFU MAPK11 (11762145_a_at) / Fold change /veh MAPK11 (11762145_a_at) / RFU FIZ1 (11724087_x_at) / Fold change /veh FIZ1 (11724087_x_at) / RFU OASL (11726364_x_at) / Fold change /veh OASL (11726364_x_at) / RFU SOX15 (11748057_x_at) / Fold change /veh SOX15 (11748057_x_at) / RFU CD79A (11719716_a_at) / Fold change /veh CD79A (11719716_a_at) / RFU HIST1H1D (11736915_at) / Fold change /veh HIST1H1D (11736915_at) / RFU CASKIN2 (11723855_a_at) / Fold change /veh CASKIN2 (11723855_a_at) / RFU LOC730098 (11760151_x_at) / Fold change /veh LOC730098 (11760151_x_at) / RFU OR4N2 (11742367_at) / Fold change /veh OR4N2 (11742367_at) / RFU PRRT2 (11749266_a_at) / Fold change /veh PRRT2 (11749266_a_at) / RFU SNX32 (11753110_a_at) / Fold change /veh SNX32 (11753110_a_at) / RFU CDHR5 (11726645_a_at) / Fold change /veh CDHR5 (11726645_a_at) / RFU RCAN1 (11760418_a_at) / Fold change /veh RCAN1 (11760418_a_at) / RFU FAM167A (11723789_a_at) / Fold change /veh FAM167A (11723789_a_at) / RFU FAM26E (11764081_at) / Fold change /veh FAM26E (11764081_at) / RFU ISYNA1 (11749810_s_at) / Fold change /veh ISYNA1 (11749810_s_at) / RFU ACY1 (11761880_at) / Fold change /veh ACY1 (11761880_at) / RFU 11764098_at / Fold change /veh 11764098_at / RFU SAMD14 (11745864_x_at) / Fold change /veh SAMD14 (11745864_x_at) / RFU NPB (11741838_a_at) / Fold change /veh NPB (11741838_a_at) / RFU TMPRSS6 (11731388_a_at) / Fold change /veh TMPRSS6 (11731388_a_at) / RFU KRTAP10-2 (11738614_at) / Fold change /veh KRTAP10-2 (11738614_at) / RFU ARHGAP8 /// PRR5-ARHGAP8 (11727945_x_at) / Fold change /veh ARHGAP8 /// PRR5-ARHGAP8 (11727945_x_at) / RFU KRTAP5-7 /// NADSYN1 (11734609_at) / Fold change /veh KRTAP5-7 /// NADSYN1 (11734609_at) / RFU RASL12 (11751679_a_at) / Fold change /veh RASL12 (11751679_a_at) / RFU CDKN2B (11736163_a_at) / Fold change /veh CDKN2B (11736163_a_at) / RFU PRF1 (11729649_at) / Fold change /veh PRF1 (11729649_at) / RFU, ZNF638 /// ZNF638-IT1 / Fold change vs veh, ZNF638 /// ZNF638-IT1 / RFU, PANK3 / Fold change vs veh, PANK3 / RFU, SH3YL1 / Fold change vs veh, SH3YL1 / RFU, ZEB2 / Fold change vs veh, ZEB2 / RFU, NRIP1 / Fold change vs veh, NRIP1 / RFU, PTTG1IP / Fold change vs veh, PTTG1IP / RFU, CAPN2 / Fold change vs veh, CAPN2 / RFU, MED14 / Fold change vs veh, MED14 / RFU, SNORA58 / Fold change vs veh, SNORA58 / RFU, C1orf63 / Fold change vs veh, C1orf63 / RFU, LRRFIP1 / Fold change vs veh, LRRFIP1 / RFU, NDUFAF7 / Fold change vs veh, NDUFAF7 / RFU, SLC12A2 / Fold change vs veh, SLC12A2 / RFU, IBTK / Fold change vs veh, IBTK / RFU, ESF1 / Fold change vs veh, ESF1 / Fold change vs veh, TMEM50B / RFU, TAOK1 / Fold change vs veh, TAOK1 / RFU, ACBD3 / Fold change vs veh, ACBD3 / RFU, TMA16 / Fold change vs veh, TMA16 / RFU, RWDD3 / Fold change vs veh, RWDD3 / RFU, BCAT1 / Fold change vs veh, BCAT1 / RFU, EDEM3 / Fold change vs veh, EDEM3 / RFU, TMEM33 / Fold change vs veh, TMEM33 / RFU, WDR75 / Fold change vs veh, WDR75 / RFU, AHCTF1 / Fold change vs veh, AHCTF1 / RFU, TFRC / Fold change vs veh, TFRC / RFU, ZDHHC17 / Fold change vs veh, ZDHHC17 / RFU, NOM1 / Fold change vs veh, NOM1 / RFU, ARL8B / Fold change vs veh, ARL8B / RFU, ZBTB11 / Fold change vs veh, ZBTB11 / RFU, TAMM41 / Fold change vs veh, TAMM41 / RFU, KIAA1704 /// LOC100996395 / Fold change vs veh, KIAA1704 /// LOC100996395 / RFU, ING1 / Fold change vs veh, ING1 / RFU, TRMT61B / Fold change vs veh, TRMT61B / RFU, FUBP3 / Fold change vs veh, FUBP3 / RFU, TP53 / Fold change vs veh, TP53 / RFU, TNKS2 / Fold change vs veh, TNKS2 / RFU, ZFP14 / Fold change vs veh, ZFP14 / RFU, ACTR2 / Fold change vs veh, ACTR2 / RFU, PPP3R1 / Fold change vs veh, PPP3R1 / RFU, PIK3R1 / Fold change vs veh, PIK3R1 / RFU, HNRNPA1 / Fold change vs veh, HNRNPA1 / RFU, RNF170 / Fold change vs veh, RNF170 / RFU, ZNF28 / Fold change vs veh, ZNF28 / RFU, RNGTT / Fold change vs veh, RNGTT / RFU, OGT / Fold change vs veh, OGT / RFU, BRD1 / Fold change vs veh, BRD1 / RFU, MARS / Fold change vs veh, MARS / RFU, ZNF655 / Fold change vs veh, ZNF655 / RFU, FAHD1 / Fold change vs veh, FAHD1 / RFU, BDP1 / Fold change vs veh, BDP1 / RFU, LRRCC1 / Fold change vs veh, LRRCC1 / RFU, ARID1A / Fold change vs veh, ARID1A / RFU, ZNF146 / Fold change vs veh, ZNF146 / RFU, ZNF330 / Fold change vs veh, ZNF330 / RFU, GPN3 / Fold change vs veh, GPN3 / RFU, C9orf123 / Fold change vs veh, C9orf123 / RFU, N4BP2L2 / Fold change vs veh, N4BP2L2 / RFU, ARFIP1 / Fold change vs veh, ARFIP1 / RFU, FAM179B / Fold change vs veh, FAM179B / RFU, BCL10 / Fold change vs veh, BCL10 / RFU, UHRF1BP1L / Fold change vs veh, UHRF1BP1L / RFU, BET1 / Fold change vs veh, BET1 / RFU, CNOT2 / Fold change vs veh, CNOT2 / RFU, ZNF268 / Fold change vs veh, ZNF268 / Fold change vs veh, ZNF507 / RFU, DGCR2 / Fold change vs veh, DGCR2 / RFU, WDSUB1 / Fold change vs veh, WDSUB1 / Fold change vs veh, HSP90B1 /// MIR3652 / RFU, ADSS / Fold change vs veh, ADSS / RFU, GK / Fold change vs veh, GK / RFU, ZNF148 / Fold change vs veh, ZNF148 / RFU, TAF9 / Fold change vs veh, TAF9 / RFU, SLC1A5 / Fold change vs veh, SLC1A5 / RFU, SLMO2 / Fold change vs veh, SLMO2 / RFU, ABCC4 / Fold change vs veh, ABCC4 / RFU, LOC101060439 /// RAP1B / Fold change vs veh, LOC101060439 /// RAP1B / RFU, RFX7 / Fold change vs veh, RFX7 / RFU, GTPBP10 / Fold change vs veh, GTPBP10 / RFU, CNEP1R1 / Fold change vs veh, CNEP1R1 / RFU, BIVM-ERCC5 /// ERCC5 / Fold change vs veh, BIVM-ERCC5 /// ERCC5 / RFU, ILF3 / Fold change vs veh, ILF3 / RFU 11762660_at / Fold change /veh 11762660_at / RFU VCAN (11757783_s_at) / Fold change /veh VCAN (11757783_s_at) / RFU DDX43 (11728927_at) / Fold change /veh DDX43 (11728927_at) / RFU KRT8 (11758188_x_at) / Fold change /veh KRT8 (11758188_x_at) / RFU NKD1 (11759106_at) / Fold change /veh NKD1 (11759106_at) / RFU SRD5A1 (11742802_a_at) / Fold change /veh SRD5A1 (11742802_a_at) / RFU TPSAB1 /// TPSB2 (11721975_s_at) / Fold change /veh TPSAB1 /// TPSB2 (11721975_s_at) / RFU GSTM3 (11746129_a_at) / Fold change /veh GSTM3 (11746129_a_at) / RFU IL23R (11737362_x_at) / Fold change /veh IL23R (11737362_x_at) / RFU TMEM51 (11727254_a_at) / Fold change /veh TMEM51 (11727254_a_at) / RFU PIWIL2 (11732686_x_at) / Fold change /veh PIWIL2 (11732686_x_at) / RFU ORM1 (11744905_x_at) / Fold change /veh ORM1 (11744905_x_at) / RFU CCDC152 (11743942_at) / Fold change /veh CCDC152 (11743942_at) / RFU ECM1 (11717891_a_at) / Fold change /veh ECM1 (11717891_a_at) / RFU IL23R (11748794_a_at) / Fold change /veh IL23R (11748794_a_at) / RFU TNFAIP8L3 (11732012_x_at) / Fold change /veh TNFAIP8L3 (11732012_x_at) / RFU MBOAT4 (11741988_at) / Fold change /veh MBOAT4 (11741988_at) / RFU 11764193_at / Fold change /veh 11764193_at / RFU TMEM53 (11763286_at) / Fold change /veh TMEM53 (11763286_at) / RFU MAGEB2 (11727129_at) / Fold change /veh MAGEB2 (11727129_at) / RFU TMEM200A (11744735_a_at) / Fold change /veh TMEM200A (11744735_a_at) / RFU CCDC152 (11751479_a_at) / Fold change /veh CCDC152 (11751479_a_at) / RFU FAM211A (11726209_a_at) / Fold change /veh FAM211A (11726209_a_at) / RFU RGS16 (11746705_a_at) / Fold change /veh RGS16 (11746705_a_at) / RFU VCAN (11755009_s_at) / Fold change /veh VCAN (11755009_s_at) / RFU RHOB (11743442_s_at) / Fold change /veh RHOB (11743442_s_at) / RFU RGS16 (11720943_a_at) / Fold change /veh RGS16 (11720943_a_at) / RFU RGS16 (11720944_at) / Fold change /veh RGS16 (11720944_at) / RFU, VPS4B / Fold change vs veh, VPS4B / RFU, CREB1 / Fold change vs veh, CREB1 / RFU, DNAJC13 / Fold change vs veh, DNAJC13 / RFU, GNAQ / Fold change vs veh, GNAQ / RFU, CDK5R1 / Fold change vs veh, CDK5R1 / RFU, ZRANB3 / Fold change vs veh, ZRANB3 / RFU, CUL4A / Fold change vs veh, CUL4A / RFU, CCNY / Fold change vs veh, CCNY / RFU, UFL1 / Fold change vs veh, UFL1 / RFU, COG3 / Fold change vs veh, COG3 / RFU, DIAPH2 / Fold change vs veh, DIAPH2 / RFU, SKA2 / Fold change vs veh, SKA2 / RFU, AFF3 / Fold change vs veh, AFF3 / RFU, LMF1 / Fold change vs veh, LMF1 / RFU, IPO11 / Fold change vs veh, IPO11 / RFU, DFFB / Fold change vs veh, DFFB / RFU, FOXP1 / Fold change vs veh, FOXP1 / RFU, CARD8 / Fold change vs veh, CARD8 / RFU, STRN3 / Fold change vs veh, STRN3 / RFU, ADK / Fold change vs veh, ADK / RFU, RASSF2 / Fold change vs veh, RASSF2 / RFU, WIPF1 / Fold change vs veh, WIPF1 / RFU, LARP1B / Fold change vs veh, LARP1B / RFU, RASA1 / Fold change vs veh, RASA1 / RFU, RB1 / Fold change vs veh, RB1 / RFU, PPFIA1 / Fold change vs veh, PPFIA1 / RFU, MAT2A / Fold change vs veh, MAT2A / RFU, CCT5 / Fold change vs veh, CCT5 / RFU, WDR92 / Fold change vs veh, WDR92 / RFU, CUX1 / Fold change vs veh, CUX1 / RFU, TTC7A / Fold change vs veh, TTC7A / RFU, TMEM135 / Fold change vs veh, TMEM135 / RFU, DEPTOR / Fold change vs veh, DEPTOR / RFU, CPM / Fold change vs veh, CPM / RFU, DNAJB6 / Fold change vs veh, DNAJB6 / RFU, CACNA2D3 / Fold change vs veh, CACNA2D3 / RFU, DTX4 / Fold change vs veh, DTX4 / RFU, TFCP2 / Fold change vs veh, TFCP2 / RFU, GMCL1 /// GMCL1P1 / Fold change vs veh, GMCL1 /// GMCL1P1 / RFU, AEBP2 / Fold change vs veh, AEBP2 / RFU, SNHG1 /// SNORD22 /// SNORD25 /// SNORD26 /// SNORD27 /// SNORD28 /// SNORD29 /// SNORD31 / Fold change vs veh, SNHG1 /// SNORD22 /// SNORD25 /// SNORD26 /// SNORD27 /// SNORD28 /// SNORD29 /// SNORD31 / Fold change (Aza/veh), C12orf56 (ProbeSet 11735607_a_at) / Fold change (ACY-1035/veh), C12orf56 (ProbeSet 11735607_a_at) / Fold change (Aza/veh), FGFR1OP (ProbeSet 11751329_s_at) / Fold change (ACY-1035/veh), FGFR1OP (ProbeSet 11751329_s_at) / Fold change (Aza/veh), VPS36 (ProbeSet 11739960_a_at) / Fold change (ACY-1035/veh), VPS36 (ProbeSet 11739960_a_at) / RFU SYPL1 (11715823_x_at) / Fold change /veh SYPL1 (11715823_x_at) / RFU IGFBP7 (11715501_s_at) / Fold change /veh IGFBP7 (11715501_s_at) / RFU REEP3 (11722064_at) / Fold change /veh REEP3 (11722064_at) / RFU IGLL1 (11728026_x_at) / Fold change /veh IGLL1 (11728026_x_at): dose or concentration left out as unconfirmed
Conditions: ProbeSet 11745260_x_at; LIST B

`Nc1ccc(-c2cccs2)cc1NC(=O)c1ccc2c(c1)cc(C1CC1)n2CCN1CCOCC1` [ACY-1035] was tested, and the “RFU, SLC12A2” value was 27.90 RFU.
